Legend:
[1] = molecular target: T1, human GLP-1R (Homo sapiens (Human), UniProt P43220); experiment: GLP-1 assay with GLP1 endogenous agonist (calcium mobilization, EC20 GLP-1 peptide 7-36 amide); format: cell-based; conditions: calcium flux; for Emax at 30 µM: 30 μM compound, EC20 of GLP-1 7-36 amide; for EC50: potentiation of EC20 GLP-1 7-36 amide
Text: A. GLP-1 Assay with GLP1 Endogenous Agonist
(§1) To assess the effects of test compounds on GLP-1 or glucagon potency and efficacy, a high-throughput calcium mobilization assay was used essentially as previously described (Morris L C, Days E L, Turney M, Mi D, Lindsley C W, Weaver C D, Niswender K D, A Duplexed High-Throughput Screen to Identify Allosteric Modulators of the Glucagon-Like Peptide 1 and Glucagon Receptors. J. Biomol. Screen. 2014 Feb. 13, 19(6):847-858). Briefly, human GLP-1R or Glucagon Receptor 9-3-H cells over-expressing a promiscuous G-protein (Millipore, Billerica, Mass.) were plated at 15,000 cells/well in black-walled 384-well plates (Greiner Bio-one, Monroe, N.C.) in Dulbecco's Modified Eagles Medium (DMEM) with 10% FCS, 4.0 mM L-glutamine, non-essential amino acids (NEAAs), and 10.0 mM HEPES without antibiotics. After overnight attachment, cells were washed twice with assay buffer (HBSS supplemented with 20 mM HEPES and 1.0 mM probenecid) using an ELx405CW cell washer (Bio-Tek, Winooski, Vt.) and then loaded with the calcium sensitive dye fluo-4 AM (Invitrogen, Grand Island, N.Y.) at a final concentration of 2.0 μM in assay buffer. After a 45-minute incubation at room temperature, the dye was removed by washing, leaving 20 μL of assay buffer. Next, the cell plate was introduced alongside a 384-well compound plate containing 0.1% final DMSO control wells and 11-point concentration response curves of putative GLP-1 PAMs created using a non-pipet based liquid transfer instrument, ECH0555 (Labcyte, Sunnyvale, Calif.). After a 20 μL compound addition to the appropriate wells, kinetic fluorescent measurements were collected for 2 minutes using an FDSS6000 (Hamamatsu, Bridgewater, N.J.) with 488 nm excitation and 480/540 emission filters. After 2 minutes, 10 μL of an EC20 concentration of GLP-1 peptide 7-36 amide (Phoenix Pharmaceuticals, Burlingame, Calif.), Glucagon (Phoenix Pharmaceuticals, Burlingame, Calif.) Exendin-4 (Tocris Bioscience, Bristol, UK), or Liraglutide (Victoza™, Novo-Nordisk, Denmark) was added and fluorescence was monitored for an additional 2 minutes to observe potentiation of the calcium flux signal. […] Recombinant peptides were reconstituted into assay buffer supplemented with 0.1% fatty acid free BSA (Sigma #A6003) and diluted into borosilicate glass tubes to maximize peptide recovery (Goebel-Stengel M, Stengel A, Tache Y, Reeve J R Jr., The importance of using the optimal plasticware and glassware in studies involving peptides. Anal. Biochem. 2011 Jul. 1, 414(1):38-46).
(§2) Data is from a single experiment unless otherwise noted. Data that is an average of two experiments is noted as “n=2” while data that is an average of three or more experiments is presented as the average plus or minus the standard error of the mean.

[2] = molecular target: T1, human GLP-1R; experiment: GLP-1 assay with EX-4 synthetic agonist (calcium mobilization, EC20 EX-4); format: cell-based; conditions: calcium flux; for Emax at 30 µM: 30 μM compound, EC20 of EX-4; for EC50: potentiation of EC20 EX-4, read-out: GLP1 EC50 (Ex-4 synthetic agonist)
Text: B. GLP-1 Assay with EX-4 Synthetic Agonist
as §1, with “L-glutamine, 1×” for “L-glutamine,”, “EL×405CW” for “ELx405CW”, “EX-4” for “GLP-1 peptide 7-36 amide”, “Taché” for “Tache”
as §2

T1 sequence (P43220 24-463): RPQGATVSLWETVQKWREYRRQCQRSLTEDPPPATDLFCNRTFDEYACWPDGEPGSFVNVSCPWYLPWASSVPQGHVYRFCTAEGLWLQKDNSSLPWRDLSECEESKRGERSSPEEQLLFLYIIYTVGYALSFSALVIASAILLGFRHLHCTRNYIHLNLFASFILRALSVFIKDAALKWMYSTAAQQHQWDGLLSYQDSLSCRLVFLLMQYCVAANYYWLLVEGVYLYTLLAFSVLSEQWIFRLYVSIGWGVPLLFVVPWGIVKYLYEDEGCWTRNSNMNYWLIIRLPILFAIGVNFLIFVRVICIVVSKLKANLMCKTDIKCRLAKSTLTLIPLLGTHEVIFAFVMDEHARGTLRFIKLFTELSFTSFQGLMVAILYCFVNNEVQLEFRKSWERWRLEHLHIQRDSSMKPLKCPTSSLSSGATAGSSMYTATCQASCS

Compound	Emax at 30 µM [1]	EC50 [1]	Emax at 30 µM [2]	EC50 [2]
Cc1c2n(c3ccccc13)C(C(=O)NC[C@@H]1CCCN1C(C)C)CN(C1CCCC1)C2=O (stereo partly drawn) [Compound 3, 2-cyclopentyl-N-(((S)-1-isopropylpyrrolidin-2-yl)methyl)-10-methyl-1-oxo-1,2,3,4-tetrahydropyrazino[1,2-a]indole-4-carboxamide]	50%	5.7 µM	55%	11 µM
Cc1c2ccccc2n2c(C(=O)NC[C@@H]3CCCN3C(C)C)cn([C@H]3CCOC3)c(=O)c12 [Compound 4, N-(((S)-1-isopropylpyrrolidin-2-yl)methyl)-10-methyl-1-oxo-2-((S)-tetrahydrofuran-3-yl)-1,2-dihydropyrazino[1,2-a]indole-4-carboxamide]	52%	2.4 µM	50%	2.9 µM
Cc1c2ccccc2n2c(C(=O)NC[C@H]3CCCN3C(C)C)cn([C@H]3CCOC3)c(=O)c12 [Compound 5, N-(((R)-1-isopropylpyrrolidin-2-yl)methyl)-10-methyl-1-oxo-2-((S)-tetrahydrofuran-3-yl)-1,2-dihydropyrazino[1,2-a]indole-4-carboxamide]	56%	4.2 µM	55%	5.9 µM
Cc1c2cc(F)ccc2n2c(C(=O)NC[C@@H]3CCCN3C(C)C)cn(C3CCCC3)c(=O)c12 [Compound 6, (S)-2-cyclopentyl-8-fluoro-N-((1-isopropylpyrrolidin-2-yl)methyl)-10-methyl-1-oxo-1,2-dihydropyrazino[1,2-a]indole-4-carboxamide]	60%	4.4 µM	54%	6.1 µM
Cc1c2cc(F)ccc2n2c(C(=O)NC[C@H]3CCCN3C(C)C)cn(C3CCCC3)c(=O)c12 [Compound 7, (R)-2-cyclopentyl-8-fluoro-N-((1-isopropylpyrrolidin-2-yl)methyl)-10-methyl-1-oxo-1,2-dihydropyrazino[1,2-a]indole-4-carboxamide]		> 30 µM		> 30 µM
Cc1c2n(c3ccccc13)[C@@H](C(=O)NC[C@@H]1CCCN1C(C)C)CN(C1CCCC1)C2=O [Compound 8, (R)-2-cyclopentyl-N-(((S)-1-isopropylpyrrolidin-2-yl)methyl)-10-methyl-1-oxo-1,2,3,4-tetrahydropyrazino[1,2-a]indole-4-carboxamide]	56%	3.6 µM	56%	3.6 µM
Cc1c2ccccc2n2c(C(=O)NC[C@@H]3CCCN3C(C)C)cn(-c3ccccc3)c(=O)c12 [Compound 14, (S)-N-((1-isopropylpyrrolidin-2-yl)methyl)-10-methyl-1-oxo-2-phenyl-1,2-dihydropyrazino[1,2-a]indole-4-carboxamide]	45%	13 µM		
Cc1c2ccccc2n2c(C(=O)NC[C@H]3CCCN3C(C)C)cn(-c3ccccc3)c(=O)c12 [Compound 15, (R)-N-((1-isopropylpyrrolidin-2-yl)methyl)-10-methyl-1-oxo-2-phenyl-1,2-dihydropyrazino[1,2-a]indole-4-carboxamide]		> 30 µM		

Other lines, results leading:

Emax at 30 µM [1]	EC50 [1]	Emax at 30 µM [2]	EC50 [2]	Compound
43%	1.9 µM			CC(C)N1CCC[C@H]1CNC(=O)c1cn(C2CCCC2)c(=O)c2c(C#N)c3ccccc3n12 [Compound 16, (S)-10-cyano-2-cyclopentyl-N-((1-isopropylpyrrolidin-2-yl)methyl)-1-oxo-1,2-dihydropyrazino[1,2-a]indole-4-carboxamide]
37%	9.6 µM			C=Cc1c2ccccc2n2c(C(=O)NC[C@@H]3CCCN3C(C)C)cn(C3CCCC3)c(=O)c12 [Compound 17, (S)-2-cyclopentyl-N-((1-isopropylpyrrolidin-2-yl)methyl)-1-oxo-10-vinyl-1,2-dihydro-pyrazino[1,2-a]indole-4-carboxamide]
34%	6.7 µM			Cc1c2ccccc2n2c(C(=O)NC[C@@H]3CCCN3C(C)C)cn(-c3cnn(C)c3)c(=O)c12 [Compound 18, (S)-N-((1-isopropylpyrrolidin-2-yl)methyl)-10-methyl-2-(1-methyl-1H-pyrazol-4-yl)-1-oxo-1,2-dihydropyrazino[1,2-a]indole-4-carboxamide]
	> 30 µM			Cc1c2ccccc2n2c(C(=O)NC[C@H]3CCCN3C(C)C)cn(-c3cnn(C)c3)c(=O)c12 [Compound 19, (R)-N-((1-isopropylpyrrolidin-2-yl)methyl)-10-methyl-2-(1-methyl-1H-pyrazol-4-yl)-1-oxo-1,2-dihydropyrazino[1,2-a]indole-4-carboxamide]
36%	5.2 µM			Cc1c2ccccc2n2c(C(=O)NC[C@@H]3CCCN3C(C)C)cn(-c3cccnc3)c(=O)c12 [Compound 20, (S)-N-((1-isopropylpyrrolidin-2-yl)methyl)-10-methyl-1-oxo-2-(pyridin-3-yl)-1,2-dihydropyrazino[1,2-a]indole-4-carboxamide]
	> 30 µM			Cc1c2ccccc2n2c(C(=O)NC[C@H]3CCCN3C(C)C)cn(-c3cccnc3)c(=O)c12 [Compound 21, (R)-N-((1-isopropylpyrrolidin-2-yl)methyl)-10-methyl-1-oxo-2-(pyridin-3-yl)-1,2-dihydropyrazino[1,2-a]indole-4-carboxamide]
	> 30 µM			Cc1c2ccccc2n2c(C(=O)NCC3CCN3)cn(C3CCCC3)c(=O)c12 (stereo not shown) [Compound 22, N-(azetidin-2-ylmethyl)-2-cyclopentyl-10-methyl-1-oxo-1,2-dihydropyrazino[1,2-a]indole-4-carboxamide]
	> 30 µM			Cc1c2ccccc2n2c(CO)cn(C3CCCC3)c(=O)c12 [Compound 23, 2-cyclopentyl-4-(hydroxymethyl)-10-methylpyrazino[1,2-a]indol-1(2H)-one]
51%	12 µM			Cc1c2ccccc2n2c(C(=O)NCC3CCN3C(C)C)cn(C3CCCC3)c(=O)c12 (stereo not shown) [Compound 24, 2-cyclopentyl-N-((1-isopropylazetidin-2-yl)methyl)-10-methyl-1-oxo-1,2-dihydropyrazino[1,2-a]indole-4-carboxamide]
	> 30 µM			Cc1c2ccccc2n2c(C(=O)O)cn(C3CCCC3)c(=O)c12 [Compound I, 2-Cyclopentyl-10-methyl-1-oxo-1,2-dihydropyrazino[1,2-a]indole-4-carboxylic acid]
